Experimental data reported in ChEMBL document CHEMBL1926516, “Induction of cell cycle arrest by the carbazole alkaloid Clauszoline-I from Clausena vestita D. D. Tao via inhibition of the PKCδ phosphorylation” (Eur J Med Chem, 2012).
The source made the active and inactive calls. The calls are words filed in the database; no cut-off is given here.

Tests used:
[1] = test system: HepG2; assay: cells; assay type: functional, cell-based; conditions: Homo sapiens, HepG2, 48 h
[2] = Cytotoxicity human L02 cells after 48 hrs by WST-8 based CCK8 assay; assay type: cell-based; conditions: L02, 48 h
[3] = target: Protein kinase C delta type (Homo sapiens) (UniProt Q05655); conditions: HepG2, 10 uM
Chain of Protein kinase C delta type (Homo sapiens) (Q05655 whole entry, looked up): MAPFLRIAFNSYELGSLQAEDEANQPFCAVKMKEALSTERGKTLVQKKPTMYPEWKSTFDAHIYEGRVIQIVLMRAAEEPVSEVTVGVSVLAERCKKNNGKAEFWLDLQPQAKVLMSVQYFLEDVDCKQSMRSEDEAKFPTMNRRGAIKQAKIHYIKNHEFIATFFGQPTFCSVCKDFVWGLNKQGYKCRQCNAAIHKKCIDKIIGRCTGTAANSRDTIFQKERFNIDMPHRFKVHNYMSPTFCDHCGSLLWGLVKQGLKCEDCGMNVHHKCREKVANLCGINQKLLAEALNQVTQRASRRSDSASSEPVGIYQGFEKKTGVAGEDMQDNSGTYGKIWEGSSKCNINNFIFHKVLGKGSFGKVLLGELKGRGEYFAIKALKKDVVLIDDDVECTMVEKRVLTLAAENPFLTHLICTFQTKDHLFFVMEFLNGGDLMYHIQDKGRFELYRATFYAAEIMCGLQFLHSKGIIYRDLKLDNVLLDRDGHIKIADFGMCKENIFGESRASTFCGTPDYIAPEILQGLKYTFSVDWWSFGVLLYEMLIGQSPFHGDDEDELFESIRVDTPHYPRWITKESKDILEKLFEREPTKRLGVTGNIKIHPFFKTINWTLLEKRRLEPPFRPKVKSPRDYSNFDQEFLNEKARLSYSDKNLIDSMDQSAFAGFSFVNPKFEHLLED
Description: Inhibition of PKCdelta phosphorylation at Ser643 in human HepG2 cells at 10 uM after 1 hr by Western blot analysis

[4] = target: Transforming protein RhoA (Homo sapiens) (UniProt P61586); assay: Inhibition of RhoA activation in human HepG2 cells assessed as decrease of membrane-associated protein level at 10 uM after 24 hrs by Western blot analysis; assay type: cell-based
Chain of Transforming protein RhoA (Homo sapiens) (P61586 whole entry): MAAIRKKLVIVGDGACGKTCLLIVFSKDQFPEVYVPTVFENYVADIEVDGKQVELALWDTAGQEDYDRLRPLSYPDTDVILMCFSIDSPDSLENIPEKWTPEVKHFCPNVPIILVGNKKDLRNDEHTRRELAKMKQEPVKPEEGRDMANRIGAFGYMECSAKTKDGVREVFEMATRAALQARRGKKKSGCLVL

[5] = test system: HepG2; assay: Cell cycle arrest in human HepG2 cells assessed as decrease in Chk1 protein level in nucleus at 16 uM after 24 hrs by Western blot analysis; assay type: functional, cell-based
[6] = Cell cycle arrest in human L02 cells assessed as effect on Chk2 protein level in nucleus at 16 uM after 24 hrs by Western blot analysis; assay type: ADME, cell-based; conditions: l02, 24 h
[7] = test system: HepG2; assay: Growth inhibition of human HepG2 cells at 16 uM after 24 to 72 hrs by WST-8 based CCK8 assay; assay type: functional, cell-based
[8] = target: PKC alpha and beta-2 (Homo sapiens) (UniProt P17252+P05771); assay: Inhibition of PKCalpha/beta2 phosphorylation at Thr 638/641 in human HepG2 cells by Western blot analysis; assay type: cell-based
Chain of PKC alpha and beta-2 (Homo sapiens) (P05771 whole entry, looked up): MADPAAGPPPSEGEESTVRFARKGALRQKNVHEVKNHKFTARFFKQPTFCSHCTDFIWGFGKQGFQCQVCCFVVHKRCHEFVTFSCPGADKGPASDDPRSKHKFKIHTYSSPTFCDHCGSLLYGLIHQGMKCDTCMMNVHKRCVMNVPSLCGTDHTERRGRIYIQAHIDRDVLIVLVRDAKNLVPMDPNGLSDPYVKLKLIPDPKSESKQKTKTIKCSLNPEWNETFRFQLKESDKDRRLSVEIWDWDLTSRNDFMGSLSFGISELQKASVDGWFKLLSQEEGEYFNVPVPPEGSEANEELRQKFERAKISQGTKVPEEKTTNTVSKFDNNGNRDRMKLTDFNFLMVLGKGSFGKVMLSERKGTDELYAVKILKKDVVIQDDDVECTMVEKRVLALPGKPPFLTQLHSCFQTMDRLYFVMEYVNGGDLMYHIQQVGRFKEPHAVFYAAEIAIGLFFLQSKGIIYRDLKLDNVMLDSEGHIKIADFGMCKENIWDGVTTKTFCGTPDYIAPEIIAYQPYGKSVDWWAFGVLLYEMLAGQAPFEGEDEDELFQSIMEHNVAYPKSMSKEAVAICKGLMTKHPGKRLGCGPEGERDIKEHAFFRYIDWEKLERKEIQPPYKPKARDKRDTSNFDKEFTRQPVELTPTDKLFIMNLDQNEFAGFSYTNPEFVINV

[9] = test system: HepG2; assay: Cell cycle arrest in human HepG2 cells assessed as effect on cytoplasmic Chk2 protein level at 16 uM after 24 hrs by Western blot analysis; assay type: functional, cell-based
[10] = Growth inhibition human CNE2 cells after 48 hrs by WST-8 based CCK8 assay; assay type: functional, cell-based; conditions: CNE-2, 48 h
[11] = test system: HepG2; assay: Cell cycle arrest in human HepG2 cells assessed as effect on Chk2 protein level in nucleus at 16 uM after 24 hrs by Western blot analysis; assay type: functional, cell-based
[12] = target: Protein kinase C delta type (Homo sapiens) (UniProt Q05655); assay: Inhibition of PKCdelta phosphorylation at Ser643 in human HepG2 cells by Western blot analysis; assay type: cell-based
[13] = target: Protein kinase C delta type (Homo sapiens) (UniProt Q05655); assay: Inhibition of PKCdelta phosphorylation at Ser643 in human L02 cells by Western blot analysis; assay type: cell-based
[14] = Cell cycle arrest in human L02 cells assessed as effect on cytoplasmic Chk2 protein level at 16 uM after 24 hrs by Western blot analysis; assay type: ADME, cell-based; conditions: l02, 24 h
[15] = target: Protein kinase C delta type (Homo sapiens) (UniProt Q05655); assay: Inhibition of PKCdelta phosphorylation at Thr505 in human L02 cells by Western blot analysis; assay type: cell-based
[16] = test system: HepG2; assay: Cell cycle arrest in human HepG2 cells assessed as accumulation at S phase at 16 uM after 24 hrs using propidium iodide staining by flow cytometry (reference value: 21.6 %); assay type: functional
[17] = test system: HeLa; assay: Growth inhibition human HeLa cells after 48 hrs by WST-8 based CCK8 assay; assay type: functional, cell-based
[18] = test system: HepG2; assay: Cell cycle arrest in human HepG2 cells assessed as increase in cytoplasmic Chk1 protein level at 16 uM after 24 hrs by Western blot analysis; assay type: functional, cell-based
[19] = Cell cycle arrest in human L02 cells assessed as effect on cytoplasmic Chk1 protein level at 16 uM after 24 hrs by Western blot analysis; assay type: ADME, cell-based; conditions: l02, 24 h
[20] = target: Transforming protein RhoA (Homo sapiens) (UniProt P61586); assay: Inhibition of RhoA activation in human HepG2 cells assessed as decrease of membrane-associated protein level at 16 uM after 24 hrs by Western blot analysis; assay type: cell-based
[21] = test system: HepG2; assay: Growth inhibition of human HepG2 cells at 4 uM after 24 to 72 hrs by WST-8 based CCK8 assay; assay type: functional, cell-based
[22] = test system: MDA-MB-231; assay: Growth inhibition human MDA-MB-231 cells after 48 hrs by WST-8 based CCK8 assay; assay type: functional, cell-based; conditions: MDA-MB-231, 48 h
[23] = target: Transforming protein RhoA (Homo sapiens) (UniProt P61586); assay: Inhibition of RhoA activation in human L02 cells assessed as decrease of membrane-associated protein level at 16 uM after 24 hrs by Western blot analysis; assay type: cell-based
[24] = test system: T98G; assay: Growth inhibition human T98G cells after 48 hrs by WST-8 based CCK8 assay; assay type: cell-based
[25] = test system: HepG2; assay: Induction of apoptosis in human HepG2 cells at 16 uM after 24 hrs using propidium iodide staining by flow cytometry; assay type: functional, cell-based
[26] = target: Protein kinase C iota type/zeta type (Homo sapiens) (UniProt P41743+Q05513); assay: Inhibition of PKCzeta/lambda phosphorylation at Thr410/403 in human HepG2 cells by Western blot analysis; assay type: cell-based
Chain of Protein kinase C iota type/zeta type (Homo sapiens) (P41743 whole entry, looked up): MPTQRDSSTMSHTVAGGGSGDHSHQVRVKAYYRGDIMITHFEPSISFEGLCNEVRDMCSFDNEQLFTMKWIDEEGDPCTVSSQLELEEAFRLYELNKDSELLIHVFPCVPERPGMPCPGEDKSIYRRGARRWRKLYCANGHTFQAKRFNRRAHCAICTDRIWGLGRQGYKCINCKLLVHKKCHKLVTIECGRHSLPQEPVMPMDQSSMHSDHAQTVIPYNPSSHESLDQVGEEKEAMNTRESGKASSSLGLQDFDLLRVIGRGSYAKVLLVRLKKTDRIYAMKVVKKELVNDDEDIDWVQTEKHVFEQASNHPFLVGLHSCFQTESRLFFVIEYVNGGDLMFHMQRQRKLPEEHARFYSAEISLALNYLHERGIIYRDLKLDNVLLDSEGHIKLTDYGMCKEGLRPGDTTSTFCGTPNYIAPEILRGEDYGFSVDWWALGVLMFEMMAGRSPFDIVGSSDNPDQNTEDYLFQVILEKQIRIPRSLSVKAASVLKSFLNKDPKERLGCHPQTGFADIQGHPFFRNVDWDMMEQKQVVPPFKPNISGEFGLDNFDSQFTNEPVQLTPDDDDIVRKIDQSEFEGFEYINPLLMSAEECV
Chain of Protein kinase C iota type/zeta type (Homo sapiens) (Q05513 whole entry, looked up): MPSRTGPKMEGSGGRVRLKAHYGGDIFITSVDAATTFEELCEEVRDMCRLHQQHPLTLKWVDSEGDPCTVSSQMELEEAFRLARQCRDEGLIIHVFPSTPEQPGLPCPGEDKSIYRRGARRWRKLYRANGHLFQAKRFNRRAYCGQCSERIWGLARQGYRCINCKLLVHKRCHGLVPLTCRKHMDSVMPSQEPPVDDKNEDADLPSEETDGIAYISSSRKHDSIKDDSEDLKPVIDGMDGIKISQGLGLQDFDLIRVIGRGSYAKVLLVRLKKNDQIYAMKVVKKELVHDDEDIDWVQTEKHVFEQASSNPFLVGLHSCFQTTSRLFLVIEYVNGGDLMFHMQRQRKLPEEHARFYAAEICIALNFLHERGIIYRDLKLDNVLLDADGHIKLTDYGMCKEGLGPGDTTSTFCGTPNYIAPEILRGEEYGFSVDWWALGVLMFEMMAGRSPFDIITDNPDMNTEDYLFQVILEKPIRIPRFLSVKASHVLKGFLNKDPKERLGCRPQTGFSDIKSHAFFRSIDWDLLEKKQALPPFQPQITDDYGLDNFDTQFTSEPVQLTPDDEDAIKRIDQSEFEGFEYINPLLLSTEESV

[27] = test system: HepG2; assay: Cell cycle arrest in human HepG2 cells assessed as accumulation at G2/M phase at 16 uM after 24 hrs using propidium iodide staining by flow cytometry (reference value: 6.9 %); assay type: functional
[28] = test system: HepG2; assay: Cytotoxicity against human HepG2 cells assessed as decrease in F-actin staining at 16 uM after 24 hrs using […] staining by confocal microscopy; assay type: functional, cell-based
[29] = Cell cycle arrest in human L02 cells assessed as effect on Chk1 protein level in nucleus at 16 uM after 24 hrs by Western blot analysis; assay type: ADME, cell-based; conditions: l02, 24 h
[30] = test system: HepG2; assay: Cell cycle arrest in human HepG2 cells assessed as accumulation at G0/G1 phase at 16 uM after 24 hrs using propidium iodide staining by flow cytometry (reference value: 71.5 %); assay type: functional
[31] = test system: HepG2; assay: Cytotoxicity against human HepG2 cells assessed as increase in cells with filamentous protrusions at 16 uM after 24 hrs using […] staining by confocal microscopy; assay type: functional, cell-based

SMILES: O=Cc1cc(O)c2[nH]c3ccc(O)cc3c2c1
- IC50 [1]: 135 µM

SMILES: Cc1cc2c(cc1O)[nH]c1ccccc12
- IC50 [1]: 14.4 µM
- IC50 [2]: 85.2 µM

SMILES: COc1cc(=O)n(C)c2ccccc12
- IC50 [1]: > 160 µM

SMILES: COC(=O)c1ccc2[nH]c3ccccc3c2c1
- IC50 [1]: 36.9 µM

SMILES: COc1ccc2c(c1)[nH]c1cc(O)c(C=O)cc12
- IC50 [1]: 28.6 µM

SMILES: CC(=O)c1c(O)c(C)c(O)c(Cc2c(O)c3c(c(C(=O)/C=C/c4ccccc4)c2O)OC(C)(C)C=C3)c1O
- inhibition [3]: Active
- inhibition [4]: Active

SMILES: COC(=O)c1cc(O)c2[nH]c3ccccc3c2c1 [CLAUSINE E]
- Activity [5]: Active
- Activity [6]: Non-toxic
- growth inhibition (GI) [7]: Active
- inhibition [8]: inactive
- Activity [9]: inactive
- IC50 [10]: 16.9 µM
- Activity [11]: inactive
- inhibition [12]: Dose-dependent effect
- inhibition [13]: inactive
- Activity [14]: Non-toxic
- IC50 [1]: 15.8 µM
- inhibition [15]: inactive
- Activity [16]: 31.1%
- IC50 [17]: 13.3 µM
- IC50 [2]: > 160 µM
- Activity [18]: Active
- Activity [19]: Non-toxic
- inhibition [20]: Active
- growth inhibition (GI) [21]: Active
- IC50 [22]: 37.1 µM
- inhibition [23]: inactive
- IC50 [24]: 71.6 µM
- Activity [25]: inactive
- inhibition [26]: inactive
- Activity [27]: 13.1%
- Activity [28]: Active
- Activity [29]: Non-toxic
- Activity [30]: 55.9%
- Activity [31]: Active

SMILES: COc1ccc2c(c1)[nH]c1cc(OC)c(C(=O)O)cc12 [CLAUSINE K]
- IC50 [1]: 24.4 µM

SMILES: O=Cc1cc2c(cc1O)[nH]c1cc(O)ccc12 [CLAUSINE O]
- IC50 [1]: 32.8 µM

SMILES: COC(=O)c1cc2c(cc1OC)[nH]c1cc(OC)ccc12 [CLAUSZOLINE C]
- IC50 [1]: > 160 µM

SMILES: COc1ccc2c(c1)[nH]c1ccc(C=O)cc12 [CLAUSZOLINE K]
- growth inhibition (GI) [7]: Active
- IC50 [1]: 4.23 µM
- IC50 [2]: 72.5 µM
- growth inhibition (GI) [21]: Active

SMILES: COc1c2ccccc2nc2occc12 [DICTAMNINE]
- IC50 [1]: 55.2 µM

SMILES: COc1c2ccoc2nc2c(OC)cccc12 [GAMMA-FAGARINE]
- IC50 [1]: > 160 µM

SMILES: Cc1cc2c([nH]c3ccccc32)c2c1OC(C)(C)C=C2 [GRINIMIBINE]
- IC50 [1]: > 160 µM

SMILES: COc1ccc2c(c1)[nH]c1cc(OC)c(C=O)cc12 [LANSINE]
- IC50 [1]: 102 µM

SMILES: O=Cc1cc2c(cc1O)[nH]c1ccccc12 [MUKONAL]
- IC50 [1]: 65.9 µM

SMILES: COC(=O)c1cc2c(cc1O)[nH]c1ccccc12 [MUKONIDINE]
- IC50 [1]: > 160 µM
